The target in the assay is HLA-DQ8. The assay is described as follows: Competitive in vitro HLA-DQ8 binding assay. More on the design: species or system human. The following applies: competition with FITC-labelled GAD65 253-265 R255F peptide (10 μM), thrombin-cleaved HLA-DQ8 monomers 0.4 μM, 48 h at 37 °C; one-site competitive binding fit. The procedure: Competitive binding assays were carried out according to previously established procedures[30][67][68]: HLA-DQ8 monomers were kindly provided by R.A.W. from the NIH Tetramer Core Facility (Atlanta, USA). The CLIP peptide of HLA-DQ8 molecules was cleaved off by incubation with thrombin (Novagen) for 2 h (ref. [69]).
Specifically, a FITC-labelled GAD65 253-265^R255F peptide (IAFFKMFPEVKEK) was used as an indicator peptide (10 μM) for the binding reaction together with thrombin-cleaved HLA-DQ8 monomers (0.4 μM) and increasing concentrations of competitor peptides (natural insulin B:9-23, ins.mim.1,2,3,4, MP185-204). The MP185-204 peptide ([…]) was used as a positive DQ8-binding control. The indicator peptide incubated with DQ8 monomers in the absence of competitor peptide was used as positive control. For background analysis the binding reaction was performed without HLA-DQ8 monomers. The binding reaction was incubated for 48 h at 37 °C. Assays were then captured using anti-DQ antibody-coated plates (SPV-L3, Abcam, 15 μg ml^−1). Detection was performed using anti-FITC HRP (Abcam, 1:1,000) antibodies in combination with TMB substrate (BD Biosciences) and subsequent analysis with the Epoch plate reader (Biotech) at 450 and 405 nm. […]

This is an account of results in paper PMC4796321, “Type 1 diabetes vaccine candidates promote human Foxp3^+Treg induction in humanized mice” (Nature Communications, 2016).

By IC50 is commonly meant the concentration at which inhibition is half-maximal.

Regarding “ins.mim.1: novel human insulin-B-chain-10-23 mimetope with 14E, 21G and 22E”, the IC50 was 3.2 µM. On to “ins.mim.2: insulin-B:10-23 peptide variant with 21G and 22E, previously established”, for which the IC50 turned out to be 6.3 µM.
